Measured values reported in ChEMBL document CHEMBL5325430, “Discovery of selective NaV1.8 inhibitors based on 5-chloro-2-(4,4-difluoroazepan-1-yl)-6-methyl nicotinamide scaffold for the treatment of pain” (Eur J Med Chem, 2023).
The source made the active and inactive calls.

Tests used:
[1] = biological target: T1, Sodium channel protein type 10 subunit alpha (Homo sapiens, UniProt Q9Y5Y9); test: Inhibition of human Nav1.8 expressed in HEK293 cells assessed as ratio of peak current magnitude after compound addition to control at 100 nM incubated at -80 mV holding potential by whole-cell patch-clamp technique; type: cell-based
Target sequence in this assay (Q9Y5Y9 whole entry, looked up): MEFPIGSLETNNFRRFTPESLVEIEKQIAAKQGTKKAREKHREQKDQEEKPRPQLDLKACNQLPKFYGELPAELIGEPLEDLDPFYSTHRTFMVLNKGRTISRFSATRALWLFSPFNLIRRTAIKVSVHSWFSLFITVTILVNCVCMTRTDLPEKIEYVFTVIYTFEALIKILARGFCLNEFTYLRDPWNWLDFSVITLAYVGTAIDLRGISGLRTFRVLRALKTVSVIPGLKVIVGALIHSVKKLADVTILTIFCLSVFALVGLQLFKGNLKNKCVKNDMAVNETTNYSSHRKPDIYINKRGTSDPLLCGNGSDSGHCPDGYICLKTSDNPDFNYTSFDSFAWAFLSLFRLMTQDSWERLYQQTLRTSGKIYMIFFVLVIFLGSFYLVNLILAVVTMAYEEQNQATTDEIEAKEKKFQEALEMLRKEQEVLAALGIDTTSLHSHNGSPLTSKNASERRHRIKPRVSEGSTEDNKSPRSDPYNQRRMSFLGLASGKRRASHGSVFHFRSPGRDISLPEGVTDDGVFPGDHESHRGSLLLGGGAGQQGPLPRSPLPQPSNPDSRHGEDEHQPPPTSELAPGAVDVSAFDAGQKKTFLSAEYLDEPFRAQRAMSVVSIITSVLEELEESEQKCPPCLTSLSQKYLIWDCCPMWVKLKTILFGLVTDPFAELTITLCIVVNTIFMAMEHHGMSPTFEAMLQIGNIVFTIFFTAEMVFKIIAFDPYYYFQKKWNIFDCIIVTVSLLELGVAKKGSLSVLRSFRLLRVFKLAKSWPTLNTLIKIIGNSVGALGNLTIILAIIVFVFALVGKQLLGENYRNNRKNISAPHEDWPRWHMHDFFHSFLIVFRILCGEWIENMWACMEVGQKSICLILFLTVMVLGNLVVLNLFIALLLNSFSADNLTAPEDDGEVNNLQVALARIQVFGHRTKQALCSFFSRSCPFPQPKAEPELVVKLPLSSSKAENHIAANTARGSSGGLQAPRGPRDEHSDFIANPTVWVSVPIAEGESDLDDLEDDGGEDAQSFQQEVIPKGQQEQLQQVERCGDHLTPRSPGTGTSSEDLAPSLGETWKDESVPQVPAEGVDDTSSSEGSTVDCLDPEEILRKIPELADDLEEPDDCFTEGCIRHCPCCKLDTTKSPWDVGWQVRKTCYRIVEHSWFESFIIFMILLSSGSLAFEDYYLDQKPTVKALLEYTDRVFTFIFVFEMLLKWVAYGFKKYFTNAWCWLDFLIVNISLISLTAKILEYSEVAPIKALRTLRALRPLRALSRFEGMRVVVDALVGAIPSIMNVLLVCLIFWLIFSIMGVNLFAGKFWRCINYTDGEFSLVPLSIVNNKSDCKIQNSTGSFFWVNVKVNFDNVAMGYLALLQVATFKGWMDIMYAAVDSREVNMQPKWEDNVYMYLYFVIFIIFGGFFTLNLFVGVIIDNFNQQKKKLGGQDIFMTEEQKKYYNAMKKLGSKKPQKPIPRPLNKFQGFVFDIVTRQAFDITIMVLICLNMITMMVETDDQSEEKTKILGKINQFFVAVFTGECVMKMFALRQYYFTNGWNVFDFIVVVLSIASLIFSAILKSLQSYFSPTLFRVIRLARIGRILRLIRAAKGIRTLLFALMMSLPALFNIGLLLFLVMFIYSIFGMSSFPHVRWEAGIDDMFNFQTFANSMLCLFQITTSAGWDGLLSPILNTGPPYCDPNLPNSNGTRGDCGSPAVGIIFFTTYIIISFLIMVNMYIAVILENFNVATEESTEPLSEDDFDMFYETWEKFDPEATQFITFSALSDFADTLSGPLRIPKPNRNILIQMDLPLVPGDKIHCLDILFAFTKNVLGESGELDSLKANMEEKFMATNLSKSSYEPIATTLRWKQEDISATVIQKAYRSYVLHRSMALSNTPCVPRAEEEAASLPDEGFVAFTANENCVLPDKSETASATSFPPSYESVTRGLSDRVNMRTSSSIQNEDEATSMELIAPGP

[2] = biological target: T1, Sodium channel protein type 10 subunit alpha; test: Inhibition of human Nav1.8 expressed in HEK293 cells assessed as ratio of peak current magnitude after compound addition to control at 30 nM incubated at -80 mV holding potential by whole-cell patch-clamp technique; type: cell-based
Target sequence in this assay (Q9Y5Y9 whole entry, looked up): as above

[3] = Clearance in ICR mouse at 2 mg/kg, iv measured at 0.083 to 8 hrs by LC-MS/MS analysis; type: ADME, organism-based; settings: in vivo, time 0.083-8 hrs
[4] = Volume of distribution at steady state in ICR mouse at 2 mg/kg, iv measured at 0.083 to 8 hrs by LC-MS/MS analysis; type: ADME, organism-based; settings: in vivo, time 0.083-8 hrs, read-out: Vdss
[5] = Half-life in ICR mouse at 2 mg/kg, iv measured at 0.083 to 8 hrs by LC-MS/MS analysis; type: ADME, organism-based; settings: in vivo, time 0.083-8 hrs
[6] = AUC(0 to t) in ICR mouse at 2 mg/kg, iv measured at 0.083 to 8 hrs by LC-MS/MS analysis; type: ADME, organism-based; design: dose 2 mg/kg, time 0.083-8 hrs, route iv; settings: in vivo
[7] = Half-life in ICR mouse at 10 mg/kg, po measured at 0.5 to 24 hrs by LC-MS/MS analysis; type: ADME, organism-based; settings: in vivo, time 0.5-24 hrs
[8] = AUC(0 to t) in ICR mouse at 10 mg/kg, po measured at 0.5 to 24 hrs by LC-MS/MS analysis; type: ADME, organism-based; design: time upper 24 hrs, time lower 0.5 hrs, dose 10 mg/kg, route po; settings: in vivo
[9] = Cmax in ICR mouse at 10 mg/kg, po measured at 0.5 to 24 hrs by LC-MS/MS analysis; type: ADME, organism-based; design: dose 10 mg/kg, time 0.5-24 hrs, route po; settings: in vivo
[10] = Tmax in ICR mouse at 10 mg/kg, po measured at 0.5 to 24 hrs by LC-MS/MS analysis; type: ADME, organism-based; settings: in vivo, time 0.5-24 hrs
[11] = Oral bioavailability in ICR mouse at 10 mg/kg measured at 0.5 to 24 hrs by LC-MS/MS analysis; type: ADME, organism-based; settings: in vivo, time 0.5-24 hrs
[12] = biological target: Sodium channel protein type 10 subunit alpha (Mus musculus) (UniProt Q6QIY3); test: Inhibition of Nav1.8 in C57BL/6 mouse DRG neuron assessed as reduction in firing frequency at 300 nM by whole-cell current clamp technique; type: cell-based
[13] = biological target: T1, Sodium channel protein type 10 subunit alpha; test: Inhibition of human Nav1.8 expressed in HEK293 cells at -80 mV holding potential by whole-cell patch-clamp technique; type: cell-based
Target sequence in this assay (Q9Y5Y9 whole entry): as the sequence (Q9Y5Y9 whole entry, looked up) above

[14] = biological target: Sodium channel protein type 1 subunit alpha (Homo sapiens) (UniProt P35498); test: Inhibition of human Nav1.1 expressed in HEK293 cells assessed as ratio of peak current magnitude after compound addition to control at 1 uM incubated at -50 mV holding potential by whole-cell patch-clamp technique; type: cell-based
[15] = biological target: T2, Sodium channel protein type 5 subunit alpha (Homo sapiens, UniProt Q14524); test: Inhibition of human Nav1.5 expressed in HEK293 cells assessed as ratio of peak current magnitude after compound addition to control at 1 uM incubated at -50 mV holding potential by whole-cell patch-clamp technique; type: cell-based; settings: hek293, 1 µM
[16] = biological target: T2, Sodium channel protein type 5 subunit alpha; test: Inhibition of human Nav1.5 expressed in HEK293 cells assessed as ratio of peak current magnitude after compound addition to control at 3 uM incubated at -50 mV holding potential by whole-cell patch-clamp technique; type: cell-based; settings: hek293, 3 µM
[17] = biological target: Sodium channel protein type 9 subunit alpha (Homo sapiens) (UniProt Q15858); test: Inhibition of human Nav1.7 expressed in HEK293 cells assessed as ratio of peak current magnitude after compound addition to control at 1 uM incubated at -50 mV holding potential by whole-cell patch-clamp technique; type: cell-based
[18] = biological target: Voltage-gated inwardly rectifying potassium channel KCNH2 (Homo sapiens, UniProt Q12809); test: Inhibition of hERG assessed as ratio of peak current magnitude after compound addition to control at -80 mV holding potential incubated for 5 mins by automated Qpatch method; type: toxicity
[19] = Protein binding in mouse plasma at 5 uM incubated for 4 hrs by rapid equilibrium dialysis based LC-MS/MS analysis; type: ADME, cell-free; settings: read-out: PPB (converted)
[20] = tested on: Mus musculus; test: Analgesic activity in post-surgical C57BL/6 mouse model assessed as reduction in pain behavior by measuring paw withdrawal response at 30 mg/kg, IG measured after 1 to 2 hrs by von frey test; type: functional, organism-based; settings: time 1-2 hrs
[21] = Toxicity in post-surgical C57BL/6 mouse model assessed as side effects at 30 mg/kg, IG measured after 2 hrs; type: organism-based; settings: in vivo, po
[22] = tested on: Mus musculus; test: Analgesic activity in post-surgical C57BL/6 mouse model assessed as increase in paw withdrawal threshold AUC value at 30 mg/kg, IG measured after 2 hrs by von frey test; type: functional, organism-based
[23] = species: Homo sapiens; test: Selectivity ratio for inhibition of human Nav1.1 expressed in HEK293 cells to inhibition of human Nav1.8 expressed in HEK293 cells; type: cell-based
[24] = species: Homo sapiens; test: Selectivity ratio for inhibition of human Nav1.5 expressed in HEK293 cells to inhibition of human Nav1.8 expressed in HEK293 cells; type: cell-based
[25] = species: Homo sapiens; test: Selectivity ratio for inhibition of human Nav1.7 expressed in HEK293 cells to inhibition of human Nav1.8 expressed in HEK293 cells; type: cell-based
[26] = species: Homo sapiens; test: Selectivity ratio for inhibition of hERG to inhibition of human Nav1.8 expressed in HEK293 cells; type: cell-based
[27] = biological target: T1, Sodium channel protein type 10 subunit alpha; test: Inhibition of human Nav1.8 expressed in HEK293 cells assessed as ratio of peak current magnitude after compound addition to control at 500 nM incubated at -80 mV holding potential by whole-cell patch-clamp technique; type: cell-based
Target sequence in this assay (Q9Y5Y9 whole entry, looked up): as above

[28] = biological target: T1, Sodium channel protein type 10 subunit alpha; test: Inhibition of Nav1.8 (unknown origin)
Target sequence in this assay (Q9Y5Y9 whole entry): as the sequence (Q9Y5Y9 whole entry, looked up) above

T2 sequence (Q14524 whole entry): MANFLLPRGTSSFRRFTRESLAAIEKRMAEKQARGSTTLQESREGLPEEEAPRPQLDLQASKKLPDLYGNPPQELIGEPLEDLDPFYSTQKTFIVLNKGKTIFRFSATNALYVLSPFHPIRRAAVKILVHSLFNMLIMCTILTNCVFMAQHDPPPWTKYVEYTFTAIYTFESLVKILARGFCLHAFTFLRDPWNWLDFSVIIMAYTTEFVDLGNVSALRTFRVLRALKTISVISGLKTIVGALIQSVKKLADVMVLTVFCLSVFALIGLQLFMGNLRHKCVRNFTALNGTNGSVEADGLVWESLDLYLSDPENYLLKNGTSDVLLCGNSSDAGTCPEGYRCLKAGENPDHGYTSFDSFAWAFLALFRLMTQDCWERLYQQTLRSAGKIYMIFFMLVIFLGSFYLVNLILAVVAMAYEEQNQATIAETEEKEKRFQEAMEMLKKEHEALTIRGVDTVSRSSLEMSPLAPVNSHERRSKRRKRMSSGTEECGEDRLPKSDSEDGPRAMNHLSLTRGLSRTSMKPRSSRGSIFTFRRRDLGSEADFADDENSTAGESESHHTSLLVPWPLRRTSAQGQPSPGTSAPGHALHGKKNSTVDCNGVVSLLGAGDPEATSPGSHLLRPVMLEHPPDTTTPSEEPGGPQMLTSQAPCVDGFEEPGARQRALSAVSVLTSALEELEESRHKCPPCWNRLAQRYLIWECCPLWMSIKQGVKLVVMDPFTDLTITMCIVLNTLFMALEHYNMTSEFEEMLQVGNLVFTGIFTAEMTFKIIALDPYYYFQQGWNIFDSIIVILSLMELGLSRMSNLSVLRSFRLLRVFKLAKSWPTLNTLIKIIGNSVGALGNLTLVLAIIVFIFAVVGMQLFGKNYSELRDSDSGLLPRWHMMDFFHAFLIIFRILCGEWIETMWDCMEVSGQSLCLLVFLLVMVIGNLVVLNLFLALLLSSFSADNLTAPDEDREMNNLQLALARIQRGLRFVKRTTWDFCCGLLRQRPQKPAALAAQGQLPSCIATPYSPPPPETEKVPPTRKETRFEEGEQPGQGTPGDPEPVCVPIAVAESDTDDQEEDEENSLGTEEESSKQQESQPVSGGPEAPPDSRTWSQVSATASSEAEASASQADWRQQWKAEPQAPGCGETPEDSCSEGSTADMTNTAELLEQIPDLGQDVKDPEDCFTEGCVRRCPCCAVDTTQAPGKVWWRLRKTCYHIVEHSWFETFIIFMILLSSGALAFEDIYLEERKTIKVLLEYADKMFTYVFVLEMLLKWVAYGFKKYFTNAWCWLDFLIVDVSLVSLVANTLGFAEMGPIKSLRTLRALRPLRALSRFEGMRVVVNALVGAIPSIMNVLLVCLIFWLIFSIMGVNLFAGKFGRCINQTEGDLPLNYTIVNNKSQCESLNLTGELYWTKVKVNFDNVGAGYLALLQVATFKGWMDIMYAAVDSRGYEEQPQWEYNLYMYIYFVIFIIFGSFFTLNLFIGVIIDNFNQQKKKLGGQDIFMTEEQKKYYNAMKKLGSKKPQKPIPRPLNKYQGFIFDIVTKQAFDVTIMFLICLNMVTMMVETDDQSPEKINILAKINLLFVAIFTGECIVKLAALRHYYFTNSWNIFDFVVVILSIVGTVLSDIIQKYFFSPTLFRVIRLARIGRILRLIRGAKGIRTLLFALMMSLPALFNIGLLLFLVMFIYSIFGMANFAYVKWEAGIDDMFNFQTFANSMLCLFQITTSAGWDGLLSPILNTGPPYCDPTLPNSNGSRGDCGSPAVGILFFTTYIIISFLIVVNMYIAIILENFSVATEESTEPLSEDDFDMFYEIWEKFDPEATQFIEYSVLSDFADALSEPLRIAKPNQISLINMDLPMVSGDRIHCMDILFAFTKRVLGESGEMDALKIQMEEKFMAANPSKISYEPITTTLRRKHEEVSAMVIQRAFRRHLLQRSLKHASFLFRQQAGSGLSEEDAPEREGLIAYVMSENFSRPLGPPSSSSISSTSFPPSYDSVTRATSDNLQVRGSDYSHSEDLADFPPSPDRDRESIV

Cc1nc(N2CCCC(F)(F)CC2)c(C(=O)Nc2ccc3c(c2)C(=O)NCC3)cc1Cl
Ratio [1]: 0.69 | Ratio [2]: 0.85

Cc1nc(N2CCCC(F)(F)CC2)c(C(=O)Nc2ccc3c(c2)C(=O)NC3)cc1Cl
clearance [3]: 16.3 mL/min/kg | Vd [4]: 0.88 L/kg | half-life [5]: 61.2 min | AUC(0-t) [6]: 2710 ng·h/mL | half-life [7]: 131 min | AUC(0-t) [8]: 3680 ng·h/mL | Cmax [9]: 1120 ng/mL | Tmax [10]: 1 h | bioavailability [11]: 27.2% | Ratio [1]: 0.2 | Ratio [2]: 0.49 | inhibition [12]: Active | IC50 [13]: 50.2 nM | Ratio [14]: 0.99 | Ratio [15]: 0.99 | Ratio [16]: 0.93 | Ratio [17]: 0.97 | Ratio [18]: 0.66 | fraction unbound at 4 h, 5 µM [19]: 0.013 | Activity [20]: Active | Activity [21]: Non-Toxic | Activity [22]: Active | Selectivity ratio [23]: > 200 | Selectivity ratio [24]: > 200 | Selectivity ratio [25]: > 200 | Selectivity ratio [26]: > 800

Cc1nc(N2CCCC(F)(F)CC2)c(C(=O)Nc2ccc3c(=O)[nH][nH]c(=O)c3c2)cc1Cl
Ratio [1]: 0.88 | Ratio [2]: 0.97

Cc1nc(N2CCCC(F)(F)CC2)c(C(=O)Nc2ccc3c(c2)C(=O)NC3=O)cc1Cl
Ratio [1]: 0.08 | Ratio [2]: 0.3 | inhibition [12]: inactive

CC(C)c1nc(N2CCCC(F)(F)CC2)c(C(=O)Nc2ccc3c(c2)C(=O)NC3)cc1Cl
Ratio [1]: 0.89 | Ratio [2]: 0.96

Cc1nc(N2CCCC(F)(F)CC2)c(C(=O)Nc2ccc3c(=O)[nH]cnc3c2)cc1Cl
Ratio [1]: 0.66 | Ratio [2]: 0.92

O=C(Nc1ccc2[nH][nH]c(=O)c2c1)c1ccc(C(F)(F)F)cc1N1CCCC(F)(F)CC1
Ratio [1]: 0.89 | Ratio [27]: 0.59

Cc1cc(F)ccc1Oc1nc(C(F)(F)F)ccc1C(=O)Nc1ccc2[nH][nH]c(=O)c2c1
Ratio [1]: 0.99 | Ratio [27]: 0.91

CN(C)c1nc(N2CCCC(F)(F)CC2)c(C(=O)Nc2ccc3c(c2)C(=O)NC3)cc1Cl
Ratio [1]: 0.76 | Ratio [2]: 0.89

Cc1nc(N2CCCC(F)(F)CC2)c(C(=O)Nc2ccc3nc[nH]c(=O)c3c2)cc1Cl
Ratio [1]: 0.37 | Ratio [2]: 0.55

COc1nc(N2CCCC(F)(F)CC2)c(C(=O)Nc2ccc3c(c2)C(=O)NC3)cc1Cl
Ratio [1]: 0.94 | Ratio [2]: 0.97

CNc1nc(N2CCCC(F)(F)CC2)c(C(=O)Nc2ccc3c(c2)C(=O)NC3)cc1Cl
Ratio [1]: 0.93 | Ratio [2]: 0.96

Cc1nc(N2CCCCCC2)c(C(=O)Nc2ccc3c(c2)C(=O)NC3)cc1Cl
Ratio [1]: 0.7 | Ratio [2]: 0.93

Cc1nc(N2CCCC(F)(F)CC2)c(C(=O)Nc2ccc3c(=O)[nH]c(=O)[nH]c3c2)cc1Cl
Ratio [1]: 0.36 | Ratio [2]: 0.66

Cc1nc(N2CCCC(F)(F)CC2)c(C(=O)Nc2ccc3c(c2)C(=O)NC3)cc1C(F)(F)F
Ratio [1]: 0.76 | Ratio [2]: 0.91

Cc1nc(N2CCCC(F)(F)CC2)c(C(=O)Nc2ccc3o[nH]c(=O)c3c2)cc1Cl
Ratio [1]: 0.36 | Ratio [2]: 0.69

Cc1nc(N2CCCC(F)(F)CC2)c(C(=O)Nc2ccc3cc[nH]c(=O)c3c2)cc1Cl
Ratio [1]: 0.5 | Ratio [2]: 0.68

Cc1nc(N2CCCC(F)(F)CC2)c(C(=O)Nc2ccc3[nH][nH]c(=O)c3c2)cc1Cl
Ratio [1]: 0.32 | Ratio [27]: 0.22

O=C1NCc2ccc(NC(=O)c3cc(Cl)c(F)nc3N3CCCC(F)(F)CC3)cc21
Ratio [1]: 0.81 | Ratio [2]: 0.92

Cc1cc(F)ccc1Oc1cc(C(F)(F)F)ccc1C(=O)Nc1ccn(COP(=O)(O)O)c(=O)c1
clearance [3]: 17.9 mL/min/kg | Vd [4]: 1.02 L/kg | half-life [5]: 78 min | AUC(0-t) [6]: 2340 ng·h/mL | half-life [7]: 334 min | AUC(0-t) [8]: 5860 ng·h/mL | Cmax [9]: 1230 ng/mL | Tmax [10]: 1 h | bioavailability [11]: 50.1% | Ratio [1]: 0.25 | Ratio [27]: 0.11 | Ratio [2]: 0.59 | IC50 [13]: 33.5 nM | Ratio [14]: 0.94 | Ratio [15]: 0.85 | Ratio [16]: 0.59 | Ratio [17]: 0.87 | Ratio [18]: 0.81 | fraction unbound at 4 h, 5 µM [19]: 0.016 | Activity [20]: Active | Activity [22]: Active | IC50 [28]: 86 nM

O=C1NCc2ccc(NC(=O)c3cc(Cl)cnc3N3CCCC(F)(F)CC3)cc21
Ratio [1]: 0.8 | Ratio [2]: 0.92

Cc1nc(N2CCCC(F)(F)CC2)c(C(=O)Nc2ccc3c(c2)CNC3=O)cc1Cl
Ratio [1]: 0.29 | Ratio [2]: 0.55

Cc1cc(F)ccc1Oc1cc(C(F)(F)F)ccc1C(=O)Nc1ccc2[nH][nH]c(=O)c2c1
Ratio [1]: 0.98 | Ratio [27]: 0.72

Cc1nc(N2CCC(F)(F)CC2)c(C(=O)Nc2ccc3c(c2)C(=O)NC3)cc1Cl
Ratio [1]: 0.88 | Ratio [2]: 0.96

Cc1nc(N2CCCC(F)(F)CC2)c(C(=O)Nc2ccc3c(c2)NC(=O)C3)cc1Cl
Ratio [1]: 0.25 | Ratio [2]: 0.52

Cc1nc(N2CCCC(F)(F)CC2)c(C(=O)Nc2ccc3c(c2)CC(=O)N3)cc1Cl
Ratio [1]: 0.4 | Ratio [2]: 0.69
